Laboratory results from patent US10610537B2, “Methods of producing sialooligosaccharides and uses thereof” (MASAYOSHI LTD., priority 2016, dated 2020).

Experiments:
[1] = system: IGF-1; test: Ability to promote the production of insulin-like growth factor-1 (IGF-1) in mice; format: in vivo; conditions: mice (n=5), in drinking water, 5 mg/kg weight/day, 3 weeks, ELISA; untreated control 0.03
Protocol: Each of the test substances produced in Example 1 and the reference standard of sialic acid (N-acetylneuraminic acid produced by Wako Pure Chemical Industries, Ltd. and having a product number of 011-26173) was dissolved in drinking water, and after adjustment of their concentrations, the individual solutions were administered to mice (n=5); the test substances were administered at 5 mg/kg weight/day. After rearing for 3 weeks, the concentration of IGF-1 in peripheral blood was examined by ELISA method.

[2] = system: NIH3T3 cells; test: Cell-proliferative activity, NIH3T3 cells (MTT assay method, Cell Counting Kit-8); format: cell-based; conditions: for Cell proliferation rate: 24 hours, no addition taken as 100
Protocol: NIH3T3 cells were cultured in a 96-well microplate to give a cell density of 10^5 cells/well, and solutions of concentration-adjusted test substance 1 and reference standard of sialic acid (N-acetylneuraminic acid produced by Wako Pure Chemical Industries, Ltd. and having a product number of 011-26173) were each added in an amount of 10 μl, followed by culture in a CO2 incubator for 24 hours (37° C., 4.5% CO2). Cell proliferation was measured by the MTT assay method using a kit (Cell Counting Kit-8 produced by DOJINDO Corporation and having a product number of 347-07621).
The cell proliferation rate was calculated at the respective additive concentrations of the test substance 1, with the value for no addition (0 mg/ml) of the test substance 1 being taken as 100.
The cell proliferation rate was calculated at the respective additive concentrations of the reference standard of sialic acid, with the value for no addition (0 mg/ml) of the reference standard of sialic acid being taken as 100.

Q: How did the “IGF-1 concentration in peripheral blood” value [1] turn out when `CC(=O)N[C@H]1[C@H]([C@H](O)[C@H](O)CO)OC(O)(C(=O)O)C[C@@H]1O` (some centres unmarked) [Reference standard of sialic acid, N-acetylneuraminic acid] was run?
A: 4.4 µg/mL

Q: And the Cell proliferation rate ([2]; additive concentration 0.08 mg/ml)?
A: 96

Q: And the Cell proliferation rate ([2]; additive concentration 0.31 mg/ml)?
A: 98

Q: What about the Cell proliferation rate ([2]; additive concentration 1.25 mg/ml) of the same molecule?
A: 101

Q: What about the Cell proliferation rate ([2]; additive concentration 2.5 mg/ml) of the same molecule?
A: 98

Q: And the Cell proliferation rate ([2]; additive concentration 5.0 mg/ml)?
A: 99

Q: And the Cell proliferation rate ([2]; additive concentration 10.0 mg/ml)?
A: 102

Q: And the “Change in cell proliferation rate (in words)” value ([2]; additive concentrations up to 10.0 mg/ml)?
A: No change was recognized in the proliferation rate
